# Results reported in ChEMBL document CHEMBL1201861, “Genomics of Drug Sensitity in Cancer screening data, Wellcome Trust Sanger Institute”.
# Experiments:
# Assay in all cases: cells
# DMS-273 = assay type: functional, cell-based; conditions: Homo sapiens
# Description: SANGER: Inhibition of human DMS-273 cell growth in a cell viability assay.
# DU-145 = assay type: functional, cell-based; conditions: Homo sapiens
# Description: SANGER: Inhibition of human DU-145 cell growth in a cell viability assay.
# EC-GI-10 = assay type: functional, cell-based, Homo sapiens; conditions: Homo sapiens, EC-GI-10
# Description: SANGER: Inhibition of human EC-GI-10 cell growth in a cell viability assay.
# EFM-19 = assay type: functional, cell-based; conditions: Homo sapiens;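 also: growth inhibition of human EFM-19 cells, measured in a cell viability assay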
# Description: SANGER: Inhibition of human EFM-19 cell growth in a cell viability assay.
# FTC-133 = assay type: functional, cell-based; conditions: Homo sapiens
# HC-1 = assay type: functional, cell-based, Homo sapiens; conditions: Homo sapiens, HC-1;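 also: growth inhibition of HC-1 cells measured by a cell viability assay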
# Description: SANGER: Inhibition of human HC-1 cell growth in a cell viability assay.
# HCC1599 = assay type: functional, cell-based, Homo sapiens; conditions: Homo sapiens, HCC1599;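 also: growth inhibition of HCC1599 cells, read out in a cell viability assay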
# Description: SANGER: Inhibition of human HCC1599 cell growth in a cell viability assay.
# HCC 2998 = assay type: functional, cell-based; conditions: Homo sapiens;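 also: growth inhibition of human HCC2998 cells, measured with a cell viability read-out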
# Description: SANGER: Inhibition of human HCC2998 cell growth in a cell viability assay.
# HGC-27 = assay type: functional, cell-based; conditions: Homo sapiens;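 also: growth inhibition of human HGC-27 cells, read out in a cell viability assay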
# Description: SANGER: Inhibition of human HGC-27 cell growth in a cell viability assay.
# HO-1-N-1 = assay type: functional, cell-based; conditions: Homo sapiens;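 also: growth inhibition of human HO-1-N-1 cells, read out with a cell viability assay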
# Description: SANGER: Inhibition of human HO-1-N-1 cell growth in a cell viability assay.
# HOS = assay type: functional, cell-based; conditions: Homo sapiens;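 also: growth inhibition of human HOS cells, read out with a cell viability assay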
# Description: SANGER: Inhibition of human HOS cell growth in a cell viability assay.
# HPAF-II = assay type: functional, cell-based; conditions: Homo sapiens;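 also: growth inhibition of HPAF-II cells, read out with a cell viability assay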
# Description: SANGER: Inhibition of human HPAF-II cell growth in a cell viability assay.
# HTC-C3 = assay type: functional, cell-based; conditions: Homo sapiens;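 also: inhibition of cell growth, read out with a cell viability assay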
# Description: SANGER: Inhibition of human HTC-C3 cell growth in a cell viability assay.
# HuCCT-1 = assay type: functional, cell-based, HuCCT1; conditions: Homo sapiens;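 also: growth inhibition of HuCCT-1 cells, read out by a cell viability assay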
# Description: SANGER: Inhibition of human HuCCT1 cell growth in a cell viability assay.
# HuP-T4 = assay type: functional, cell-based; conditions: Homo sapiens;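 also: cell viability assay measuring how much HuP-T4 cell growth is inhibited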
# Description: SANGER: Inhibition of human HuP-T4 cell growth in a cell viability assay.
# J82 = assay type: functional, cell-based; conditions: Homo sapiens;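 also: growth inhibition of J82 cells, read out with a cell viability assay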
# Description: SANGER: Inhibition of human J82 cell growth in a cell viability assay.
# KMOE-2 = assay type: functional, cell-based, Homo sapiens; conditions: Homo sapiens, KMOE-2;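 also: growth inhibition of human KMOE-2 cells, read out with a cell viability assay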
# Description: SANGER: Inhibition of human KMOE-2 cell growth in a cell viability assay.
# KOSC-2 = assay type: functional, cell-based; conditions: Homo sapiens;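 also: growth inhibition of KOSC-2 cells, read out by a cell viability assay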
# Description: SANGER: Inhibition of human KOSC-2 cell growth in a cell viability assay.
# KU-19-19 = assay type: functional, cell-based; conditions: Homo sapiens
# Description: SANGER: Inhibition of human KU-19-19 cell growth in a cell viability assay.
# KYSE-140 = assay type: functional, cell-based; conditions: Homo sapiens;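 also: cell viability assay measuring growth inhibition in human KYSE-140 cells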
# Description: SANGER: Inhibition of human KYSE-140 cell growth in a cell viability assay.
# KYSE-180 = assay type: functional, cell-based; conditions: Homo sapiens;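 also: growth inhibition of KYSE-180 cells, read out with a cell viability assay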
# Description: SANGER: Inhibition of human KYSE-180 cell growth in a cell viability assay.
# KYSE-270 = assay type: functional, cell-based; conditions: Homo sapiens;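 also: cell growth inhibition measured with a viability assay in the human KYSE-270 line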
# Description: SANGER: Inhibition of human KYSE-270 cell growth in a cell viability assay.
# KYSE-510 = assay type: functional, cell-based; conditions: Homo sapiens;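 also: cell viability readout used to measure how strongly growth of the cell line is suppressed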
# Description: SANGER: Inhibition of human KYSE-510 cell growth in a cell viability assay.
# LK-2 = assay type: functional, cell-based; conditions: Homo sapiens;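 also: growth inhibition of LK-2 cells, read out with a viability assay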
# Description: SANGER: Inhibition of human LK-2 cell growth in a cell viability assay.
# LU-165 = assay type: functional, cell-based, Homo sapiens; conditions: Homo sapiens, LU-165
# Description: SANGER: Inhibition of human LU-165 cell growth in a cell viability assay.
# MDA-MB-175-VII = assay type: functional, cell-based; conditions: Homo sapiens
# MDA-MB-415 = assay type: functional, cell-based; conditions: Homo sapiens
# MG-63 = assay type: functional, cell-based; conditions: Homo sapiens;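 also: growth inhibition of human MG-63 cells, read out with a cell viability assay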
# Description: SANGER: Inhibition of human MG-63 cell growth in a cell viability assay.
# NCI-H1694 = assay type: functional, cell-based, Homo sapiens; conditions: Homo sapiens, NCI-H1694;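 also: cell viability assay measuring inhibition of growth in human NCI-H1694 cells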
# Description: SANGER: Inhibition of human NCI-H1694 cell growth in a cell viability assay.
# NCI-H1793 = assay type: functional, cell-based; conditions: Homo sapiens;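 also: cell growth inhibition, read out by a cell viability assay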
# Description: SANGER: Inhibition of human NCI-H1793 cell growth in a cell viability assay.
# NCI-H187 = assay type: functional, cell-based, Homo sapiens; conditions: Homo sapiens, NCI-H187;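 also: growth inhibition of NCI-H187 cells, read out as cell viability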
# Description: SANGER: Inhibition of human NCI-H187 cell growth in a cell viability assay.
# NCI-H2081 = assay type: functional, cell-based, Homo sapiens; conditions: Homo sapiens, NCI-H2081;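 also: growth inhibition of human NCI-H2081 cells, read out with a cell viability assay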
# Description: SANGER: Inhibition of human NCI-H2081 cell growth in a cell viability assay.
# NCI-H2196 = assay type: functional, cell-based, Homo sapiens; conditions: Homo sapiens, NCI-H2196; read-out: IC50;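 also: cell viability assay used as the readout of growth inhibition in NCI-H2196 cells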
# Description: SANGER: Inhibition of human NCI-H2196 cell growth in a cell viability assay.
# NCI-H510A = assay type: functional, cell-based, Homo sapiens; conditions: Homo sapiens, NCI-H510A;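 also: growth inhibition of NCI-H510A cells, read out with a cell viability assay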
# Description: SANGER: Inhibition of human NCI-H510A cell growth in a cell viability assay.
# NCI-H524 = assay type: functional, cell-based, Homo sapiens; conditions: Homo sapiens, NCI-H524;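 also: growth inhibition of human NCI-H524 cells, read out through a cell viability assay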
# Description: SANGER: Inhibition of human NCI-H524 cell growth in a cell viability assay.
# NCI-H716 = assay type: functional, cell-based, Homo sapiens; conditions: Homo sapiens, NCI-H716;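 also: growth inhibition of human NCI-H716 cells, measured by a cell viability assay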
# Description: SANGER: Inhibition of human NCI-H716 cell growth in a cell viability assay.
# NCI-H727 = assay type: functional, cell-based; conditions: Homo sapiens;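 also: growth inhibition of human NCI-H727 cells, read out with a cell viability assay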
# Description: SANGER: Inhibition of human NCI-H727 cell growth in a cell viability assay.
# SNU-16 = assay type: functional, cell-based, Homo sapiens; conditions: Homo sapiens, SNU-16;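 also: growth inhibition of human SNU-16 cells, determined with a cell viability readout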
# Description: SANGER: Inhibition of human NCI-SNU-16 cell growth in a cell viability assay.
# NUGC-3 = assay type: functional, cell-based; conditions: Homo sapiens;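 also: growth inhibition of human NUGC-3 cells, read out with a cell viability assay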
# Description: SANGER: Inhibition of human NUGC-3 cell growth in a cell viability assay.
# OE33 = assay type: functional, cell-based; conditions: Homo sapiens;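 also: growth inhibition of human OE33 cells, measured by a cell viability assay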
# Description: SANGER: Inhibition of human OE33 cell growth in a cell viability assay.
# OVCAR-8 = assay type: functional, cell-based; conditions: Homo sapiens;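 also: growth inhibition of human OVCAR-8 cells, read out by a cell viability assay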
# Description: SANGER: Inhibition of human OVCAR-8 cell growth in a cell viability assay.
# PC-14 = assay type: functional, cell-based; conditions: Homo sapiens;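 also: cell viability assay measuring inhibition of PC-14 cell growth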
# Description: SANGER: Inhibition of human PC-14 cell growth in a cell viability assay.
# PC-3 = assay type: functional, cell-based; conditions: Homo sapiens;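 also: cell viability assay measuring growth inhibition of PC-3 cells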
# Description: SANGER: Inhibition of human PC-3 cell growth in a cell viability assay.
# RL95-2 = assay type: functional, cell-based, Homo sapiens; conditions: Homo sapiens, RL95-2;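 also: RL95-2 growth inhibition determined through a cell viability readout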
# Description: SANGER: Inhibition of human RL95-2 cell growth in a cell viability assay.
# RVH-421 = assay type: functional, cell-based; conditions: Homo sapiens
# Description: SANGER: Inhibition of human RVH-421 cell growth in a cell viability assay.
# SK-LU-1 = assay type: functional, cell-based; conditions: Homo sapiens;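 also: cell viability assay measuring growth inhibition of human SK-LU-1 cells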
# Description: SANGER: Inhibition of human SK-LU-1 cell growth in a cell viability assay.
# SK-MEL-28 = assay type: functional, cell-based; conditions: Homo sapiens;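 also: growth inhibition of human SK-MEL-28 cells, read out with a cell viability assay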
# Description: SANGER: Inhibition of human SK-MEL-28 cell growth in a cell viability assay.
# SK-MEL-30 = assay type: functional, cell-based; conditions: Homo sapiens;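 also: growth inhibition of SK-MEL-30 cells, determined with a cell viability assay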
# Description: SANGER: Inhibition of human SK-MEL-30 cell growth in a cell viability assay.
# SK-OV-3 = assay type: functional, cell-based; conditions: Homo sapiens;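 also: growth inhibition of SK-OV-3 human cells, read out with a cell viability assay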
# Description: SANGER: Inhibition of human SK-OV-3 cell growth in a cell viability assay.
# SW626 = assay type: functional, cell-based; conditions: Homo sapiens;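 also: growth inhibition of SW626 cells, measured with a cell viability assay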
# Description: SANGER: Inhibition of human SW626 cell growth in a cell viability assay.
# A-375 = assay type: functional, cell-based; conditions: Homo sapiens;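 also: growth inhibition of A375 cells, read out with a cell viability assay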
# Description: SANGER: Inhibition of human A375 cell growth in a cell viability assay.
# ARH-77 = assay type: functional, cell-based, Homo sapiens; conditions: Homo sapiens, ARH-77;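 also: growth inhibition of ARH-77 cells, read out by a cell viability assay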
# Description: SANGER: Inhibition of human ARH-77 cell growth in a cell viability assay.
# AU565 = assay type: functional, cell-based; conditions: Homo sapiens;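 also: cell viability assay measuring growth inhibition of human AU565 cells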
# Description: SANGER: Inhibition of human AU565 cell growth in a cell viability assay.
# BCPAP = assay type: functional, cell-based; conditions: Homo sapiens;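 also: growth inhibition of BCPAP cells, read out in a cell viability assay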
# Description: SANGER: Inhibition of human BCPAP cell growth in a cell viability assay.
# BHT-101 = assay type: functional, cell-based; conditions: Homo sapiens
# Description: SANGER: Inhibition of human BHT-101 cell growth in a cell viability assay.
# CAL-148 = assay type: functional, cell-based, Homo sapiens; conditions: Homo sapiens, CAL-148
# Description: SANGER: Inhibition of human CAL-148 cell growth in a cell viability assay.
# CAL-33 = assay type: functional, cell-based; conditions: Homo sapiens;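 also: growth inhibition of CAL-33 cells, read out with a cell viability assay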
# Description: SANGER: Inhibition of human CAL-33 cell growth in a cell viability assay.
# UMC-11 = assay type: functional, cell-based; conditions: Homo sapiens;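 also: growth inhibition of UMC-11 cells, read out with a cell viability assay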
# Description: SANGER: Inhibition of human UMC-11 cell growth in a cell viability assay.
structure (smiles),measurement,setting,value
COC(=O)[C@H](CCSC)NC(=O)c1ccc(NC[C@@H](N)CS)cc1-c1ccccc1,IC50,DMS-273,> 1020 nM
same,IC50,DU-145,> 1020 nM
same,IC50,EC-GI-10,> 1020 nM
same,IC50,EFM-19,> 1020 nM
same,IC50,FTC-133,> 1020 nM
same,IC50,HC-1,> 1020 nM
same,IC50,HCC1599,> 1020 nM
same,IC50,HCC 2998,> 1020 nM
same,IC50,HGC-27,> 1020 nM
same,IC50,HO-1-N-1,> 1020 nM
same,IC50,HOS,> 1020 nM
same,IC50,HPAF-II,> 1020 nM
same,IC50,HTC-C3,> 1020 nM
same,IC50,HuCCT-1,> 1020 nM
same,IC50,HuP-T4,> 1020 nM
same,IC50,J82,> 1020 nM
same,IC50,KMOE-2,> 1020 nM
same,IC50,KOSC-2,> 1020 nM
same,IC50,KU-19-19,> 1020 nM
same,IC50,KYSE-140,> 1020 nM
same,IC50,KYSE-180,> 1020 nM
same,IC50,KYSE-270,> 1020 nM
same,IC50,KYSE-510,> 1020 nM
same,IC50,LK-2,> 1020 nM
same,IC50,LU-165,> 1020 nM
same,IC50,MDA-MB-175-VII,> 1020 nM
same,IC50,MDA-MB-415,> 1020 nM
same,IC50,MG-63,> 1020 nM
same,IC50,NCI-H1694,> 1020 nM
same,IC50,NCI-H1793,> 1020 nM
same,IC50,NCI-H187,> 1020 nM
same,IC50,NCI-H2081,> 1020 nM
same,IC50,NCI-H2196,> 1020 nM
same,IC50,NCI-H510A,> 1020 nM
same,IC50,NCI-H524,> 1020 nM
same,IC50,NCI-H716,> 1020 nM
same,IC50,NCI-H727,> 1020 nM
same,IC50,SNU-16,> 1020 nM
same,IC50,NUGC-3,> 1020 nM
same,IC50,OE33,> 1020 nM
same,IC50,OVCAR-8,> 1020 nM
same,IC50,PC-14,> 1020 nM
same,IC50,PC-3,> 1020 nM
same,IC50,RL95-2,> 1020 nM
same,IC50,RVH-421,> 1020 nM
same,IC50,SK-LU-1,> 1020 nM
same,IC50,SK-MEL-28,> 1020 nM
same,IC50,SK-MEL-30,> 1020 nM
same,IC50,SK-OV-3,> 1020 nM
same,IC50,SW626,> 1020 nM
same,IC50,A-375,> 1020 nM
same,IC50,ARH-77,> 1020 nM
same,IC50,AU565,> 1020 nM
same,IC50,BCPAP,> 1020 nM
same,IC50,BHT-101,> 1020 nM
same,IC50,CAL-148,> 1020 nM
same,IC50,CAL-33,> 1020 nM
same,IC50,UMC-11,> 1020 nM
Cc1ccc(C(=O)Nc2ccc(CN3CCN(C)CC3)c(C(F)(F)F)c2)cc1C#Cc1cnc2cccnn12 [PONATINIB],IC50,DMS-273,> 512 nM
same,IC50,DU-145,> 512 nM
same,IC50,EC-GI-10,> 512 nM
same,IC50,EFM-19,> 512 nM
same,IC50,FTC-133,> 512 nM
same,IC50,HC-1,> 512 nM
same,IC50,HCC1599,> 512 nM
same,IC50,HCC 2998,> 512 nM
same,IC50,HGC-27,294 nM
same,IC50,HO-1-N-1,> 512 nM
same,IC50,HOS,504 nM
same,IC50,HPAF-II,> 512 nM
same,IC50,HTC-C3,> 512 nM
same,IC50,HuCCT-1,> 512 nM
same,IC50,HuP-T4,> 512 nM
same,IC50,J82,> 512 nM
same,IC50,KMOE-2,> 512 nM
same,IC50,KOSC-2,> 512 nM
same,IC50,KU-19-19,> 512 nM
same,IC50,KYSE-140,> 512 nM
same,IC50,KYSE-180,269 nM
same,IC50,KYSE-270,> 512 nM
same,IC50,KYSE-510,> 512 nM
same,IC50,LK-2,> 512 nM
same,IC50,LU-165,> 512 nM
same,IC50,MDA-MB-175-VII,> 512 nM
same,IC50,MDA-MB-415,> 512 nM
same,IC50,MG-63,> 512 nM
same,IC50,NCI-H1694,> 512 nM
same,IC50,NCI-H1793,> 512 nM
same,IC50,NCI-H187,> 512 nM
same,IC50,NCI-H2081,> 512 nM
same,IC50,NCI-H2196,> 512 nM
same,IC50,NCI-H510A,> 512 nM
same,IC50,NCI-H524,> 512 nM
same,IC50,NCI-H716,163 nM
same,IC50,NCI-H727,> 512 nM
same,IC50,SNU-16,> 512 nM
same,IC50,NUGC-3,> 512 nM
same,IC50,OE33,> 512 nM
same,IC50,OVCAR-8,> 512 nM
same,IC50,PC-14,> 512 nM
same,IC50,PC-3,> 512 nM
same,IC50,RL95-2,> 512 nM
same,IC50,RVH-421,> 512 nM
same,IC50,SK-LU-1,315 nM
same,IC50,SK-MEL-28,> 512 nM
same,IC50,SK-MEL-30,> 512 nM
same,IC50,SK-OV-3,> 512 nM
same,IC50,SW626,> 512 nM
same,IC50,A-375,> 512 nM
same,IC50,ARH-77,> 512 nM
same,IC50,AU565,> 512 nM
same,IC50,BCPAP,360 nM
same,IC50,BHT-101,> 512 nM
same,IC50,CAL-148,> 512 nM
same,IC50,CAL-33,> 512 nM
same,IC50,UMC-11,> 512 nM
